{"source": "paper PMC8310135", "about": "(Viruses, 2021)", "key": {"rLUJV/ZsG": {"tested_on": "rLUJV/ZsG", "test": "microbe, parasite or virus in culture", "type": "cell-based, Lujo virus", "settings": "for activity at 0.05 µM / activity at 0.5 µM / activity at 5 µM: Huh-7, read-out: Relative ZsG (%) Mean"}, "in vitro": {"test": "in vitro", "settings": "human; for CC50: CC50 (50% cell cytotoxicity concentration)"}, "wt LUJV": {"tested_on": "wt LUJV", "type": "cell-based, Lujo virus"}, "Huh7 cells": {"tested_on": "Huh7 cells", "settings": "for CC50: human"}, "[1]": {"settings": "Mammarenavirus lujoense, Huh-7, read-out: EC50 (concentration inhibiting ZsG expression by 50%)"}, "[2]": {"settings": "Mammarenavirus lujoense, 500 nM"}, "[3]": {"settings": "Mammarenavirus lujoense, 5000 nM"}, "[4]": {"settings": "read-out: EC50 (concentration inhibiting ZsG expression by 50%)"}}, "note": "Counter-ions that a name gives are not always drawn. Like-named read-outs stand apart in the source and are kept apart here.", "data": [{"compound": "NC(=O)c1nc(F)c[nH]c1=O", "note": "[Favipiravir (T-705), Favipiravir]", "values": [{"measurement": "EC50", "setting": "rLUJV/ZsG; [1]", "value": "2.95 ± 0.69", "unit": "µM"}, {"measurement": "activity at 0.05 µM", "setting": "rLUJV/ZsG; Mammarenavirus lujoense, 50 nM", "value": 94, "unit": "%"}, {"measurement": "activity at 0.5 µM", "setting": "rLUJV/ZsG; [2]", "value": 95, "unit": "%"}, {"measurement": "activity at 5 µM", "setting": "rLUJV/ZsG; [3]", "value": 22, "unit": "%"}, {"measurement": "EC50", "setting": "rLUJV/ZsG; [4]", "value": "2.95 ± 0.693", "unit": "µM"}, {"measurement": "viability", "setting": "in vitro", "value": "> 75", "unit": "%"}, {"measurement": "viability at 0.05 µM", "setting": "in vitro", "value": 101, "unit": "%"}, {"measurement": "viability at 0.5 µM", "setting": "in vitro", "value": 104, "unit": "%"}, {"measurement": "viability at 5 µM", "setting": "in vitro", "value": 96, "unit": "%"}, {"measurement": "CC50", "setting": "in vitro", "value": "> 50", "unit": "µM"}, {"measurement": "reduction of wt LUJV viral titers", "setting": "wt LUJV", "value": "approximately 4 logs"}]}, {"compound": "COc1ccc(-n2cnc3cc(NCc4ccc(C(C)C)cc4)ccc32)cc1", "note": "[ST-193]", "values": [{"measurement": "Cell Viability (%) Mean", "setting": "Huh7 cells; 50 nM", "value": 105, "unit": "%"}, {"measurement": "Cell Viability (%) Mean", "setting": "Huh7 cells; 500 nM", "value": 98, "unit": "%"}, {"measurement": "Cell Viability (%) Mean", "setting": "Huh7 cells; 5000 nM", "value": 101, "unit": "%"}, {"measurement": "Relative ZsG (%) Mean", "setting": "rLUJV/ZsG; 50 nM", "value": 107, "unit": "%"}, {"measurement": "Relative ZsG (%) Mean", "setting": "rLUJV/ZsG; 500 nM", "value": 102, "unit": "%"}, {"measurement": "Relative ZsG (%) Mean", "setting": "rLUJV/ZsG; 5000 nM", "value": 91, "unit": "%"}]}, {"compound": "C[C@@]1(O)[C@H](O)[C@@H](CO)O[C@H]1n1ccc2c(N)ncnc21", "note": "[7-DMA]", "values": [{"measurement": "Cell Viability (%) Mean", "setting": "Huh7 cells; 50 nM", "value": 98, "unit": "%"}, {"measurement": "Cell Viability (%) Mean", "setting": "Huh7 cells; 500 nM", "value": 103, "unit": "%"}, {"measurement": "Cell Viability (%) Mean", "setting": "Huh7 cells; 5000 nM", "value": 113, "unit": "%"}, {"measurement": "Relative ZsG (%) Mean", "setting": "rLUJV/ZsG; 50 nM", "value": 96, "unit": "%"}, {"measurement": "Relative ZsG (%) Mean", "setting": "rLUJV/ZsG; 500 nM", "value": 95, "unit": "%"}, {"measurement": "Relative ZsG (%) Mean", "setting": "rLUJV/ZsG; 5000 nM", "value": 92, "unit": "%"}]}, {"compound": "C[C@@]1(F)[C@H](O)[C@@H](CO)O[C@H]1n1ccc(=O)[nH]c1=O", "note": "[PSI-6206]", "values": [{"measurement": "Cell Viability (%) Mean", "setting": "Huh7 cells; 50 nM", "value": 103, "unit": "%"}, {"measurement": "Cell Viability (%) Mean", "setting": "Huh7 cells; 500 nM", "value": 96, "unit": "%"}, {"measurement": "Cell Viability (%) Mean", "setting": "Huh7 cells; 5000 nM", "value": 104, "unit": "%"}, {"measurement": "Relative ZsG (%) Mean", "setting": "rLUJV/ZsG; 50 nM", "value": 141, "unit": "%"}, {"measurement": "Relative ZsG (%) Mean", "setting": "rLUJV/ZsG; 500 nM", "value": 87, "unit": "%"}, {"measurement": "Relative ZsG (%) Mean", "setting": "rLUJV/ZsG; 5000 nM", "value": 128, "unit": "%"}]}, {"compound": "CC/C(=C(\\c1ccccc1)c1ccc(OCCN(C)C)cc1)c1ccccc1", "note": "[Tamoxifene citrate]", "values": [{"measurement": "CC50", "setting": "Huh7 cells", "value": "7.37 ± 1.04", "unit": "µM"}, {"measurement": "SI (selectivity index, CC50 divided by EC50)", "setting": "rLUJV/ZsG", "value": 2.1}, {"measurement": "EC50", "setting": "rLUJV/ZsG; [1]", "value": "3.59 ± 0.72", "unit": "µM"}, {"measurement": "activity at 0.05 µM", "setting": "rLUJV/ZsG; Mammarenavirus lujoense, 50 nM", "value": 84, "unit": "%"}, {"measurement": "activity at 0.5 µM", "setting": "rLUJV/ZsG; [2]", "value": 78, "unit": "%"}, {"measurement": "activity at 5 µM", "setting": "rLUJV/ZsG; [3]", "value": 2, "unit": "%"}, {"measurement": "EC50", "setting": "rLUJV/ZsG; [4]", "value": "3.59 ± 0.724", "unit": "µM"}, {"measurement": "viability at 0.05 µM", "setting": "in vitro", "value": 123, "unit": "%"}, {"measurement": "viability at 0.5 µM", "setting": "in vitro", "value": 123, "unit": "%"}, {"measurement": "viability at 5 µM", "setting": "in vitro", "value": 85, "unit": "%"}, {"measurement": "CC50", "setting": "in vitro", "value": "7.37 ± 1.04", "unit": "µM"}]}, {"compound": "C[C@H](Cn1cnc2c(N)ncnc21)OCP(=O)(O)O", "note": "[Tenofivir]", "values": [{"measurement": "Cell Viability (%) Mean", "setting": "Huh7 cells; 50 nM", "value": 101, "unit": "%"}, {"measurement": "Cell Viability (%) Mean", "setting": "Huh7 cells; 500 nM", "value": 100, "unit": "%"}, {"measurement": "Cell Viability (%) Mean", "setting": "Huh7 cells; 5000 nM", "value": 100, "unit": "%"}, {"measurement": "Relative ZsG (%) Mean", "setting": "rLUJV/ZsG; 50 nM", "value": 114, "unit": "%"}, {"measurement": "Relative ZsG (%) Mean", "setting": "rLUJV/ZsG; 500 nM", "value": 138, "unit": "%"}, {"measurement": "Relative ZsG (%) Mean", "setting": "rLUJV/ZsG; 5000 nM", "value": 96, "unit": "%"}]}, {"compound": "Cl.Fc1ccc([C@@H]2CCNC[C@H]2COc2ccc3c(c2)OCO3)cc1", "note": "[Paroxetine HCl]", "values": [{"measurement": "Cell Viability (%) Mean", "setting": "Huh7 cells; 50 nM", "value": 138, "unit": "%"}, {"measurement": "Cell Viability (%) Mean", "setting": "Huh7 cells; 500 nM", "value": 145, "unit": "%"}, {"measurement": "Cell Viability (%) Mean", "setting": "Huh7 cells; 5000 nM", "value": 110, "unit": "%"}, {"measurement": "Relative ZsG (%) Mean", "setting": "rLUJV/ZsG; 50 nM", "value": 93, "unit": "%"}, {"measurement": "Relative ZsG (%) Mean", "setting": "rLUJV/ZsG; 500 nM", "value": 83, "unit": "%"}, {"measurement": "Relative ZsG (%) Mean", "setting": "rLUJV/ZsG; 5000 nM", "value": 48, "unit": "%"}]}, {"compound": "C[C@@]1(F)[C@H](O)[C@@H](CO)O[C@H]1n1ccc(N)nc1=O", "note": "[PSI-6130]", "values": [{"measurement": "Cell Viability (%) Mean", "setting": "Huh7 cells; 50 nM", "value": 100, "unit": "%"}, {"measurement": "Cell Viability (%) Mean", "setting": "Huh7 cells; 500 nM", "value": 96, "unit": "%"}, {"measurement": "Cell Viability (%) Mean", "setting": "Huh7 cells; 5000 nM", "value": 99, "unit": "%"}, {"measurement": "Relative ZsG (%) Mean", "setting": "rLUJV/ZsG; 50 nM", "value": 149, "unit": "%"}, {"measurement": "Relative ZsG (%) Mean", "setting": "rLUJV/ZsG; 500 nM", "value": 90, "unit": "%"}, {"measurement": "Relative ZsG (%) Mean", "setting": "rLUJV/ZsG; 5000 nM", "value": 114, "unit": "%"}]}, {"compound": "[N-]=[N+]=N[C@]1(CO)O[C@@H](n2ccc(N)nc2=O)[C@@H](O)[C@@H]1O", "note": "[R09187]", "values": [{"measurement": "Cell Viability (%) Mean", "setting": "Huh7 cells; 50 nM", "value": 99, "unit": "%"}, {"measurement": "Cell Viability (%) Mean", "setting": "Huh7 cells; 500 nM", "value": 98, "unit": "%"}, {"measurement": "Cell Viability (%) Mean", "setting": "Huh7 cells; 5000 nM", "value": 102, "unit": "%"}, {"measurement": "Relative ZsG (%) Mean", "setting": "rLUJV/ZsG; 50 nM", "value": 116, "unit": "%"}, {"measurement": "Relative ZsG (%) Mean", "setting": "rLUJV/ZsG; 500 nM", "value": 122, "unit": "%"}, {"measurement": "Relative ZsG (%) Mean", "setting": "rLUJV/ZsG; 5000 nM", "value": 88, "unit": "%"}]}, {"compound": "O=C(c1ccc(OCCN2CCCCC2)cc1)c1c(-c2ccc(O)cc2)sc2cc(O)ccc12", "note": "[Raloxifene (Evista), Raloxifene]", "values": [{"measurement": "CC50", "setting": "Huh7 cells", "value": "9.29 ± 1.31", "unit": "µM"}, {"measurement": "SI (selectivity index, CC50 divided by EC50)", "setting": "rLUJV/ZsG", "value": 6.2}, {"measurement": "EC50", "setting": "rLUJV/ZsG; [1]", "value": "1.5 ± 0.793", "unit": "µM"}, {"measurement": "activity at 0.05 µM", "setting": "rLUJV/ZsG; Mammarenavirus lujoense, 50 nM", "value": 87, "unit": "%"}, {"measurement": "activity at 0.5 µM", "setting": "rLUJV/ZsG; [2]", "value": 89, "unit": "%"}, {"measurement": "activity at 5 µM", "setting": "rLUJV/ZsG; [3]", "value": 3, "unit": "%"}, {"measurement": "viability at 0.05 µM", "setting": "in vitro", "value": 139, "unit": "%"}, {"measurement": "viability at 0.5 µM", "setting": "in vitro", "value": 136, "unit": "%"}, {"measurement": "viability at 5 µM", "setting": "in vitro", "value": 86, "unit": "%"}, {"measurement": "CC50", "setting": "in vitro", "value": "9.3 ± 1.3", "unit": "µM"}]}]}
